{"source": "patent EP1285920A1", "about": "“C10 Ester sustituted taxanes as antitumor agents” (Florida State University Research Foundation, Inc., priority 2001, dated 2003)", "key": {"HCT116": {"tested_on": "HCT116", "experiment": "In Vitro cytotoxicity measured by the cell colony formation assay", "type": "cell-based, human", "settings": "Homo sapiens, HCT-116; read-out: IN VITRO ID 50 HCT116", "in_short": "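Four hundred cells per dish in McCoy's 5a medium with 10% FBS were allowed to attach for 5 h at 37 °C. They were then exposed to compound for 72 h at 37 °C, added as a 10× stock made fresh in medium. After HBSS rinsing and refeeding, colonies were counted after 7 days.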"}, "DU145 prostate carcinoma": {"tested_on": "DU145 prostate carcinoma", "settings": "for Stable Disease / Complete Response / Partial Response / Survivors / Toxic Deaths: number of 5 mice", "text": "Dosing was initiated on Day 1. […] Treatment groups are detailed in Table 5."}, "VM46 colon carcinoma": {"tested_on": "VM46 colon carcinoma", "settings": "for Mean Score: tumor scoring system", "protocol": "Dosing was initiated on Day 1. […] Taxotere was given i.v. at a dose of 70 mg/kg on a qd x 1 schedule."}, "[1]": {"tested_on": "Panc-1 pancreatic carcinoma", "experiment": "In vivo evaluation against Panc-1 human pancreatic carcinoma (Example 17)"}, "[2]": {"tested_on": "NCI-H1299 (H1299) carcinoma", "experiment": "In vivo evaluation against NCI-H1299 human lung carcinoma xenograft (i.v., Example 11)", "protocol": "Antitumor compounds were formulated for an i.v. dosing regime prepared in the following vehicle: 10% ethanol, 10% Cremophor and 80% isotonic saline.\nVehicle control animals were dosed twice intravenously with half the total volume being given separated by one hour. The study was terminated on Day 60.\nA complete response is obtained if the tumor is not palpable at the end of the study.\nA tumor scoring system was designed to provide a more quantitative ranking of efficacy (therapeutic potential) among the antitumor agents evaluated against the different human solid tumor xenografts. Each mouse in a study was given a score of from 1 to 10 at the end of the study. The scores can be summarized as follows:\nThe individual score for each mouse was averaged into a mean score for each treatment group. […]\nThe treatment protocol for the H1299 test was identical to the SK-MES test protocol. […]"}, "[3]": {"settings": "i.v. qd x 1 at estimated MTD (Taxol 24 mg/kg split), Day 91"}, "[4]": {"settings": "number of mice, Taxol 15 mg/kg i.p. qd x 5, 6 mice, Day 64"}, "[5]": {"settings": "number of mice, i.v. qd x 1, mg/kg: Taxol 24, 0499 77, 0503 72.6, 0670 123.1, 0706 107.6, 0838 72.6, 0854 46.6, 0983 67.4, Taxotere 70, 6 mice/group, Day 64"}, "[6]": {"settings": "number of mice, i.v. qd x 1, mg/kg: Taxol 36, 0499 77, 0503 72.6, 0670 123.1, 0706 107.6, 0838 72.6, 0854 76.9, 6 mice/group, Day 60"}}, "note": "Where two headings read alike, the source gives them in different places."}
{"smiles": "CC(=O)O[C@H]1C(=O)[C@@]2(C)[C@H]([C@H](OC(=O)c3ccccc3)[C@]3(O)C[C@H](OC(=O)[C@H](O)[C@@H](NC(=O)c4ccccc4)c4ccccc4)C(C)=C1C3(C)C)[C@]1(OC(C)=O)CO[C@@H]1C[C@@H]2O", "note": "[Taxol, paclitaxel, reference compound]", "values": [{"measurement": "IC50", "setting": "HCT116", "result": 2.1, "unit": "nM"}, {"measurement": "increase in survival compared to Group 1 controls", "setting": "DU145 prostate carcinoma; DU145, Taxol 24 mg/kg i.v. qd x 1", "result": 9, "unit": "%"}, {"measurement": "toxicity", "setting": "DU145 prostate carcinoma; DU145, Taxol i.p. 18 mg/kg qd x 5 (Group 3)", "result": "highly toxic"}, {"measurement": "mice died of drug-related side effects", "setting": "DU145 prostate carcinoma; DU145, Taxol i.p. 18 mg/kg qd x 5 (Group 3), five mice", "result": "five"}, {"measurement": "MDS", "setting": "DU145 prostate carcinoma; DU145, i.v. qd x 1 (compounds estimated MTD; Taxol 24 mg/kg split), days until tumor 1.5 g, ended Day 91", "result": 37.4, "unit": "days"}, {"measurement": "toxic deaths / toxic lethalities", "setting": "DU145 prostate carcinoma; DU145, i.v. qd x 1, five mice per group", "result": "One"}, {"measurement": "Mean Score", "setting": "DU145 prostate carcinoma; Taxol 18 mg/kg i.p. qd x 5, 5 mice", "result": "0 ± 0"}, {"measurement": "Mean Score", "setting": "DU145 prostate carcinoma; i.v. qd x 1 at estimated MTD (Taxol 24 mg/kg split), 5 mice/group, Day 91", "result": "2 ± 1"}, {"measurement": "MDS (n)", "setting": "DU145 prostate carcinoma; mean days of survival until tumor reached 1.5 g, i.v. qd x 1 at estimated MTD (Taxol 24 mg/kg as two split doses), 5 mice/group, study ended Day 91", "result": "37.4 ± 8.9 (3) days"}, {"measurement": "Stable Disease", "setting": "DU145 prostate carcinoma; tumor did not reach 1.5 g by end of study, i.v. qd x 1 at estimated MTD (Taxol 24 mg/kg split), Day 91", "result": 1}, {"measurement": "Complete Response", "setting": "DU145 prostate carcinoma; Taxol 18 mg/kg i.p. qd x 5", "result": 0}, {"measurement": "Partial Response", "setting": "DU145 prostate carcinoma; Taxol 18 mg/kg i.p. qd x 5", "result": 0}, {"measurement": "Stable Disease", "setting": "DU145 prostate carcinoma; Taxol 18 mg/kg i.p. qd x 5", "result": 0}, {"measurement": "Survivors", "setting": "DU145 prostate carcinoma; Taxol 18 mg/kg i.p. qd x 5", "result": 0}, {"measurement": "Toxic Deaths", "setting": "DU145 prostate carcinoma; Taxol 18 mg/kg i.p. qd x 5", "result": 5}, {"measurement": "Toxic Deaths", "setting": "DU145 prostate carcinoma; i.v. qd x 1 at estimated MTD (Taxol 24 mg/kg as two split doses), Day 91", "result": 1}, {"measurement": "Complete Response", "setting": "DU145 prostate carcinoma; [3]", "result": 0}, {"measurement": "Partial Response", "setting": "DU145 prostate carcinoma; [3]", "result": 0}, {"measurement": "Survivors", "setting": "DU145 prostate carcinoma; [3]", "result": 1}, {"measurement": "toxicity", "setting": "VM46 colon carcinoma; VM46, Taxol i.p. 15 mg/kg qd x 5", "result": "excessively toxic"}, {"measurement": "mortalities", "setting": "VM46 colon carcinoma; VM46, Taxol i.p. 15 mg/kg qd x 5, six treated animals", "result": "three"}, {"measurement": "partial responses", "setting": "VM46 colon carcinoma; VM46, i.v. qd x 1 (compounds estimated MTD; Taxol 24 mg/kg split), six mice per group, ended Day 64", "result": "one"}, {"measurement": "Stable Disease", "setting": "VM46 colon carcinoma; VM46, i.v. qd x 1, six mice per group", "result": "one"}, {"measurement": "MDS (n)", "setting": "VM46 colon carcinoma; mean days of survival until neoplasm reached 1.5 g, Taxol 15 mg/kg i.p. qd x 5, 6 mice, terminated Day 64", "result": "36.1 ± 12.2 (2) days"}, {"measurement": "Toxic Deaths", "setting": "VM46 colon carcinoma; number of mice, Taxol 15 mg/kg i.p. qd x 5, 6 mice", "result": 3}, {"measurement": "Complete Response", "setting": "VM46 colon carcinoma; [4]", "result": 0}, {"measurement": "Partial Response", "setting": "VM46 colon carcinoma; [4]", "result": 1}, {"measurement": "Stable Disease", "setting": "VM46 colon carcinoma; [4]", "result": 0}, {"measurement": "Survivors", "setting": "VM46 colon carcinoma; [4]", "result": 1}, {"measurement": "Toxic Deaths", "setting": "VM46 colon carcinoma; number of mice, i.v. qd x 1, mg/kg: Taxol 24, 0499 77, 0503 72.6, 0670 123.1, 0706 107.6, 0838 72.6, 0854 46.6, 0983 67.4, Taxotere 70, 6 mice/group", "result": 0}, {"measurement": "Complete Response", "setting": "VM46 colon carcinoma; [5]", "result": 0}, {"measurement": "Partial Response", "setting": "VM46 colon carcinoma; [5]", "result": 1}, {"measurement": "Stable Disease", "setting": "VM46 colon carcinoma; [5]", "result": 1}, {"measurement": "Survivors", "setting": "VM46 colon carcinoma; [5]", "result": 2}, {"measurement": "Mean Score", "setting": "VM46 colon carcinoma; Taxol 15 mg/kg i.p. qd x 5, 6 mice", "result": "1.8 ± 1.3"}, {"measurement": "Mean Score", "setting": "VM46 colon carcinoma; i.v. qd x 1, mg/kg: Taxol 24, 0499 77, 0503 72.6, 0670 123.1, 0706 107.6, 0838 72.6, 0854 46.6, 0983 67.4, Taxotere 70, 6 mice/group", "result": "3.8 ± 1.4"}, {"measurement": "survival extension compared to Group 1 controls", "setting": "[1]; Panc-1 (Example 17), Taxol 36 mg/kg i.v. qd x 1, three mice", "result": 126, "unit": "%"}, {"measurement": "Toxic Deaths", "setting": "[1]; Panc-1 (Example 17), i.v. qd x 1, six mice per group", "result": "Three"}, {"measurement": "Toxic Deaths", "setting": "[1]; number of mice, i.v. qd x 1, mg/kg: Taxol 36, 0499 77, 0503 72.6, 0670 123.1, 0706 107.6, 0838 72.6, 0854 76.9, 6 mice/group", "result": 3}, {"measurement": "Complete Response", "setting": "[1]; [6]", "result": 0}, {"measurement": "Partial Response", "setting": "[1]; [6]", "result": 0}, {"measurement": "Stable Disease", "setting": "[1]; [6]", "result": 0}, {"measurement": "Survivors", "setting": "[1]; [6]", "result": 0}, {"measurement": "Mean Score", "setting": "[1]; tumor scoring system, i.v. qd x 1, mg/kg: Taxol 36, 0499 77, 0503 72.6, 0670 123.1, 0706 107.6, 0838 72.6, 0854 76.9, 6 mice/group", "result": "1.6 ± 0.7"}, {"measurement": "survival extension compared to vehicle-treated animals", "setting": "[2]; Taxol 36 mg/kg i.v., five animals", "result": 10, "unit": "%"}, {"measurement": "MDS (n)", "setting": "[2]; i.v. MTD in two half doses one hour apart, qd x 1, Taxol 36 mg/kg, 0503 72.1 mg/kg, ended Day 60", "result": "27.0 ± 4.6 (5) days"}, {"measurement": "Complete Response", "setting": "[2]; i.v. split dose qd x 1", "result": 0}, {"measurement": "Stable Disease", "setting": "[2]; i.v. split dose qd x 1", "result": 0}]}
